Test results taken from article PMC8688997, “Five Constituents Contributed to the Psoraleae Fructus-Induced Hepatotoxicity via Mitochondrial Dysfunction and Apoptosis” (Frontiers in Pharmacology, 2021).
Entries after “also recorded” stand apart in the source; their conditions may differ. Like-named read-outs stand apart in the source and are kept apart here.

Key:
L02 cells [1] = experiment: CCK-8 cell viability assay, L02 cells; format: cell-based, human
Method: (§1) L02 and HepG2 cells were purchased from the China Infrastructure of Cell Line Resources (Beijing, China). They were cultured in Dulbecco’s modified Eagle’s medium (DMEM) high glucose medium (Gibco, Grand Island, NY, USA) supplemented with 10% (v/v) fetal bovine serum (FBS) (Gibco, Melbourne, VIC, Australia) and 1% U/ml of antibiotics (penicillin and streptomycin) at 37°C in an atmosphere containing 5% CO2.
(§2) The viability of L02 and HepG2 cells was determined using the CCK-8 assay. L02 and HepG2 cells (1 × 10^4 cells/well) were seeded into 96-well plates for 12 h until they visibly reached confluence. Then, the adherent cells were treated with varying concentrations of psoralen (120.86, 161.34, 215.12, 286.83, 382.44, 509.92, 679.90, and 906.53 μmol/L), isopsoralen (161.15, 214.87, 286.64, 382.47, 509.88, 679.85, 906.53, and 1,208.64 μmol/L), bavachin (16.40, 21.95, 29.23, 38.97, 52.04, 69.37, 92.49, and 123.32 μmol/L), psoralidin (8.92, 11.89, 15.82, 21.17, 28.19, 37.58, 50.19, and 66.90 μmol/L), bavachinin (11.82, 15.72, 21.04, 28.01, 37.35, 49.88, 66.49, and 88.65 μmol/L), neobavaisoflavone (5.21, 9.30, 16.50, 29.41, 52.36, 93.07, 165.53, and 294.46 μmol/L), and bakuchiol (11.70, 15.60, 20.75, 27.77, 36.97, 49.30, 65.84, and 87.76 μmol/L). Consequently, these cells were incubated for 24 h, and 100 μl of 10% (v/v) CCK-8 medium solution was added to each well for 2 h. The absorbance (optical density (OD)) of the culture medium was detected at 450 nm using a Multiskan GO microplate reader (Thermo Fisher Scientific). Each experiment was repeated thrice, and each treatment was probed in at least six wells. The following equation was used to calculate the viability of the cells (%): Cell Viability (%)=ODcompound−ODblank/ODcontrol−ODblank×100%

L02 and HepG2 cells [2] = format: cell-based; conditions: human, 24 h
Method: (§3) Here, L02 and HepG2 cells were plated at a density of […] in 96-well plates. Then, they were treated with bavachin (17, 34, and 68 μmol/L), psoralidin (11.5 23, and 46 μmol/L), bavachinin (15, 30, and 60 μmol/L), neobavaisoflavone (23.5, 47, and 94 μmol/L), and bakuchiol (13, 26, and 52 μmol/L) for 24 h. Then Hoechst 33342, eBioscience™ JC-1 Mitochondrial Membrane Potential Dye, CellROX Deep Red, and HCS LipidTOX™ Green Phospholipidosis Detection Reagent kits were used to characterize their cell counts, nuclear area, MMP, ROS, and intracellular lipid. Consequently, multi-parameter cytotoxicity was analyzed through high-content screening (HCS) analysis (IN Cell Analyzer 2500 HS; Cytiva, Marlborough, MA, USA). Then, a 20× objective was used to collect all images. Three independent wells were examined for each treatment, and 16 fields per well were captured during the analysis. Lastly, HCS analysis was performed using Automated Image and Cell Analysis software (IN Cell Analyzer 2000; USA).

HepG2 cells [3] = experiment: CCK-8 cell viability assay, HepG2 cells; format: cell-based, human
Method: as §1, §2

L02 cells [4] = experiment: Annexin V-FITC/PI flow cytometry apoptosis assay, L02 cells; format: cell-based, human; conditions: 48 h
Method: (§4) First, L02 and HepG2 cells were cultured in 6-well plates at a density of 5 × 10^5 cells/well. Then, they were treated with bavachin (17, 34, and 68 μmol/L), psoralidin (11.5, 23, and 46 μmol/L), bavachinin (15, 30, and 60 μmol/L), neobavaisoflavone (23.5, 47, and 94 μmol/L), and bakuchiol (13, 26, and 52 μmol/L) for 48 h, harvested, and washed with PBS. The apoptosis rate was measured using Pharmingen™ FITC Annexin V Apoptosis Detection Kit I (BD, 556,547, USA) following the instructions from the manufacturer. With the use of a FACSCalibur cytometer (Becton Dickinson, San Jose, CA, USA), 1 × 10^4 cells were acquired and analyzed.

L02 cells [5] = experiment: HCS LipidTOX Green intracellular lipid assay, L02 cells; format: cell-based, human; conditions: 24 h
Method: as §3

L02 and HepG2 cells [6] = experiment: Annexin V-FITC/PI flow cytometry apoptosis assay, L02 and HepG2 cells not distinguished; format: cell-based, human
Method: as §4

HepG2 cells [7] = experiment: HCS CellROX Deep Red ROS assay, HepG2 cells; format: cell-based, human
Method: as §3

HepG2 cells [8] = experiment: HCS LipidTOX Green intracellular lipid assay, HepG2 cells; format: cell-based, human; conditions: 24 h
Method: as §3

L02 and HepG2 cells [9] = format: cell-based, human
Method: (§5) L02 and HepG2 cells were cultured in 6-well plates at a density of 2 × 10^5 cells/well. Subsequently, they were incubated with bavachin, psoralidin, bavachinin, neobavaisoflavone, and bakuchiol for 24 h, and the cell supernatant was collected. Lastly, aspartate aminotransferase (AST), alanine aminotransferase (ALT), and ALP were detected using a CX4 Pro automatic biochemical analyzer (Beckman, Brea, CA, USA).

L02 and HepG2 cells [10] = experiment: CCK-8 cell viability assay, L02 and HepG2 cells not distinguished; format: cell-based, human; conditions: for IC50: read-out: IC50 value (approximate, discussion); for effect on cell viability / hepatocyte toxicity (in words): L02 and HepG2 cells
Method: as §1
The viability of L02 and HepG2 cells was determined using the CCK-8 assay. L02 and HepG2 cells (1 × 10^4 cells/well) were seeded into 96-well plates for 12 h until they visibly reached confluence. […] Consequently, these cells were incubated for 24 h, and 100 μl of 10% (v/v) CCK-8 medium solution was added to each well for 2 h. The absorbance (optical density (OD)) of the culture medium was detected at 450 nm using a Multiskan GO microplate reader (Thermo Fisher Scientific). Each experiment was repeated thrice, and each treatment was probed in at least six wells. The following equation was used to calculate the viability of the cells (%): Cell Viability (%)=ODcompound−ODblank/ODcontrol−ODblank×100%

L02 and HepG2 cells [11] = experiment: HCS LipidTOX Green intracellular lipid assay, L02 and HepG2 cells not distinguished; format: cell-based, human
Method: as §3

L02 cells [12] = experiment: ALP, ALT and AST in cell culture supernatant, L02 cells; format: cell-based, human
Method: as §5

L02 cells [13] = experiment: HCS CellROX Deep Red ROS assay, L02 cells; format: cell-based, human; conditions: only at 68 μmol/L, 24 h
Method: as §3

HepG2 cells [14] = tested on: HepG2 cells; set-up: method as in Yu et al., 2020; conditions: another report; ref Yu et al., 2020; read-out: concentration inhibiting 50% cell viability; cited from earlier work
HepG2 cells [15] = experiment: ALP, ALT and AST in cell culture supernatant, HepG2 cells; format: cell-based, human; conditions: 46 μmol/L, 24 h
Method: as §5

L02 and HepG2 cells [16] = experiment: HCS JC-1 mitochondrial membrane potential (MMP) assay, L02 and HepG2 cells; format: cell-based, human; conditions: 60 μmol/L; 24 h
Method: as §3

[17] = Homo sapiens, L02, CCK-8, incubation 24 h or 48 h, read-out: IC50 toward L02 cells
[18] = Homo sapiens, HepG2, CCK-8, incubation 24 h or 48 h, read-out: IC50 toward HepG2 cells
[19] = Homo sapiens, HepG2, cell line not distinguished

Compound: C=C[C@@](C)(/C=C/c1ccc(O)cc1)CCC=C(C)C [Bakuchiol, bakuchiol]
- IC50 (L02 cells [1]; [17]): 25.9 µM
- effect on ROS induction, L02 cells compared with HepG2 cells (L02 and HepG2 cells [2]; 52 μmol/L): stronger effect on ROS induction in L02 cells than HepG2 cells
- IC50 (HepG2 cells [3]; [18]): 34.5 µM
- necrotic cell percentages (L02 cells [4]; 52 μmol/L, Figure 7I): 34.6%
- lipid accumulation, times higher than control (L02 cells [5]; 13 μmol/L): 1.88 times
- lipid accumulation, times higher than control (L02 cells [5]; 26 μmol/L): 2.18 times
- lipid accumulation, times higher than control (L02 cells [5]; 52 μmol/L): 3.37 times
- cell early apoptosis percentage (L02 and HepG2 cells [6]): markedly and progressively increased
- effect on cell apoptosis (in words) (L02 and HepG2 cells [6]): induced apoptosis in a dose-dependent manner
- ROS generation (HepG2 cells [7]): promoted ROS generation
- lipid accumulation, times higher than control (HepG2 cells [8]; first of three doses (13 μmol/L)): 1.27 times
- lipid accumulation, times higher than control (HepG2 cells [8]; second of three doses (26 μmol/L)): 2.37 times
- lipid accumulation, times higher than control (HepG2 cells [8]; third of three doses (52 μmol/L)): 5.84 times
- effect on ALP, ALT, and AST contents (in words, discussion) (L02 and HepG2 cells [9]): little effect
- increase of ALP, ALT, and AST levels (discussion) (L02 and HepG2 cells [9]): five times
- IC50 (L02 and HepG2 cells [10]; [19]): ~25 µM
- effect on cell viability / hepatocyte toxicity (in words) (L02 and HepG2 cells [10]): more potent inhibitory effects on cell viability than other compounds

Compound: CC(C)=CCc1cc2c(cc1O)O[C@H](c1ccc(O)cc1)CC2=O [Bavachin, bavachin]
- IC50 (L02 cells [1]; [17]): 33.9 µM
- IC50 (HepG2 cells [3]; [18]): 34.8 µM
- effect on lipid accumulation, L02 cells compared with HepG2 cells (L02 and HepG2 cells [11]; human, 24 h, 68 μmol/L): stronger inducing effect on lipid accumulation in the HepG2 cells
- apoptotic cell percentage (L02 cells [4]; L02 cells, increased from 6.7%, concentration not given): 44.47%
- ALP, ALT, and AST contents (L02 cells [12]): increased
- cell early apoptosis percentage (L02 and HepG2 cells [6]): markedly and progressively increased
- ROS level (L02 cells [13]): increased
- IC50 (L02 and HepG2 cells [10]; [19]): ~30 µM
- effect on cell viability / hepatocyte toxicity (in words) (L02 and HepG2 cells [10]): intense repression of cell viability

Compound: O=c1ccc2ccc3occc3c2o1 [Isopsoralen, isopsoralen]
- IC50 (L02 cells [1]; Homo sapiens, L02, read-out: IC50 toward L02 cells): 77.9 µM
- IC50 (HepG2 cells [3]; Homo sapiens, HepG2, read-out: IC50 toward HepG2 cells): 174 µM
- effect on cell viability / hepatocyte toxicity (in words) (L02 and HepG2 cells [10]): little hepatocyte toxicity; also recorded: very low or no toxicity

Compound: CC(C)=CCc1cc(-c2coc3cc(O)ccc3c2=O)ccc1O [Neobavaisoflavone, neobavaisoflavone]
- IC50 (L02 cells [1]; [17]): 47.8 µM
- effect on ROS induction, L02 cells compared with HepG2 cells (L02 and HepG2 cells [2]): stronger effect on ROS induction in L02 cells than HepG2 cells
- IC50 (HepG2 cells [3]; [18]): 51.7 µM
- ALP, ALT, and AST contents (L02 cells [12]): increased
- cell early apoptosis percentage (L02 and HepG2 cells [6]): markedly and progressively increased
- effect on cell apoptosis (in words) (L02 and HepG2 cells [6]): induced apoptosis in a dose-dependent manner
- effect on cell viability / hepatocyte toxicity (in words) (L02 and HepG2 cells [10]): intense repression of cell viability

Compound: O=c1ccc2cc3ccoc3cc2o1 [Psoralen, psoralen]
- IC50 (L02 cells [1]; [17]): 284 µM
- IC50 (HepG2 cells [14]): ~400 µM
- IC50 (HepG2 cells [3]; [18]): 739 µM
- effect on cell viability / hepatocyte toxicity (in words) (L02 and HepG2 cells [10]): very low or no toxicity
- effect on cell viability / hepatocyte toxicity (in words) (L02 and HepG2 cells [10]; listed as psoralen): little hepatocyte toxicity

Compound: CC(C)=CCc1cc2c(cc1O)oc(=O)c1c3ccc(O)cc3oc21 [Psoralidin, psoralidin]
- IC50 (L02 cells [1]; [17]): 23.1 µM
- IC50 (HepG2 cells [3]; [18]): 23.4 µM
- effect on lipid accumulation, L02 cells compared with HepG2 cells (L02 and HepG2 cells [11]; human, 24 h): more substantial effect on lipid accumulation in L02 cells than HepG2 cells
- effect on cell apoptosis (in words) (L02 and HepG2 cells [6]): little effect on cell apoptosis
- apoptotic cell percentage (L02 and HepG2 cells [6]; 46 μmol/L, 48 h, Figure 7C,D): 17%
- ALP level, times higher than control (HepG2 cells [15]): 5.7 times
- AST level, times higher than control (HepG2 cells [15]): 5.4 times
- increase of ALP, ALT, and AST levels (discussion) (L02 and HepG2 cells [9]): five times
- induction of ALP, ALT, and AST contents (L02 and HepG2 cells [9]): more than fivefold
- IC50 (L02 and HepG2 cells [10]; [19]): ~25 µM
- effect on cell viability / hepatocyte toxicity (in words) (L02 and HepG2 cells [10]): more potent inhibitory effects on cell viability than other compounds

Compound: bavachinin
- IC50 (L02 cells [1]; CCK-8, incubation 24 h or 48 h, read-out: IC50 toward L02 cells): 29.8 µM
- IC50 (HepG2 cells [3]; CCK-8, incubation 24 h or 48 h, read-out: IC50 toward HepG2 cells): 29.1 µM
- effect on lipid accumulation, L02 cells compared with HepG2 cells (L02 and HepG2 cells [11]; 60 μmol/L): more substantial effect on lipid accumulation in L02 cells than HepG2 cells
- lipid accumulation levels (L02 and HepG2 cells [11]; L02 and HepG2 cells, 24 h, p < 0.05, p < 0.01): promoted lipid accumulation
- ALP, ALT, and AST contents (L02 cells [12]; L02 cells, high dosage, 24 h): increased
- cell apoptosis at low dose concentration (L02 and HepG2 cells [6]; 15 μmol/L, 48 h): induced cell apoptosis
- cell early apoptosis percentage (L02 and HepG2 cells [6]; as the concentration increased, compared with the control): markedly and progressively increased
- ROS level (HepG2 cells [7]; HepG2 cells, 30 and 60 μmol/L, 24 h): increased
- MMP levels (L02 and HepG2 cells [16]): reduced
- effect on cell viability / hepatocyte toxicity (in words) (L02 and HepG2 cells [10]): intense repression of cell viability
- IC50 (L02 and HepG2 cells [10]; cell line not distinguished): ~30 µM
